Values of other authors in patent US20220160728A1, “GENE THERAPY METHODS” (Homology Medicines, Inc., priority 2020, published 2022).

Settings: corticosteroid equivalency conversion values (prednisolone equivalents)
For `CC(=O)OCC(=O)[C@@]1(O)CC[C@H]2[C@@H]3CCC4=CC(=O)CC[C@]4(C)[C@H]3C(=O)C[C@@]21C` [Cortisone acetate], the Equivalent dose is given as 25 mg. In the case of `C[C@]12CCC(=O)C=C1CC[C@@H]1[C@@H]2[C@@H](O)C[C@@]2(C)[C@H]1CC[C@]2(O)C(=O)CO` [Hydrocortisone (cortisol), Hydrocortisone], the Equivalent dose is listed as 20 mg. For `C[C@]12C=CC(=O)C=C1CC[C@@H]1[C@@H]2[C@@H](O)C[C@@]2(C)[C@H]1CC[C@]2(O)C(=O)CO` [Prednisolone], the Equivalent dose is listed as 5 mg. In the case of `C[C@]12C=CC(=O)C=C1CC[C@H]1[C@@H]3C[C@@H](O)[C@](O)(C(=O)CO)[C@@]3(C)C[C@H](O)[C@@]12F` [Triamcinolone], the Equivalent dose is listed as 4 mg.
